US7935349B2, “CRMP4b inhibitory peptide” (The Royal Institution for the Advancement of …, priority 2006, dated 2011)

Columns and labels:
E8 chick DRG neurons = test: Sema3A-dependent growth cone collapse assay; type: cell-based; conditions: HSV-infected, stimulated 20 min with AP-Sema3A ligand, FIG. 8f
Description: […] Sema3A-AP or AP conditioned media was prepared as described previously (Takahashi et al., 1998). Explants were stimulated with Sema3A-AP- or AP-conditioned media at indicated concentrations for 20 min and fixed with 4% paraformaldehyde, 20% sucrose and 0.1M NaPO4. Explants were stained with rhodamine phalloidin and assessed for growth cone collapse as described (Luo et al., 1993).

CRMP4b-RhoA binding = target: T1, CRMP4b-RhoA binding (Homo sapiens, UniProt P61586); test: CRMP-RhoA co-immunoprecipitation, full length CRMP4b binding to RhoA in co-transfected HEK293T cells; type: cell-based, rat; conditions: co-transfection with myc-RhoAWT and CRMP4-V5, myc-immunoprecipitation, FIG. 7c
T1 construct: expressed in transfected cells; host or cells: HEK293T
T1 sequence (P61586 1-190 limits assumed): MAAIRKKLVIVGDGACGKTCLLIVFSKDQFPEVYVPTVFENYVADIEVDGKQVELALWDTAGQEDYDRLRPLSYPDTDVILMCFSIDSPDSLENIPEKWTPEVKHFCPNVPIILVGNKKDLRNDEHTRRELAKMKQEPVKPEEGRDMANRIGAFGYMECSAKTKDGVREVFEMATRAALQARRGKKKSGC
Description: (§1) HEK 293T cells were grown to sub-confluence and transfected with Lipofectamine 2000 according to manufacturer instructions (Invitrogen, Burlington, Ontario), washed twice with ice-cold PBS and lysed in lysis buffer A (50 mM Tris, pH 7.4, 150 mM NaCl, 1 mM EDTA, 1% (v/v) Triton X-100, 1 mM Na3VO4, 1 mM NaF, 1 mM PMSF and CØmplete protease inhibitors (Roche Diagnostics, Laval, PQ)). Lysates were pre-cleared with protein A/G-agarose (Santa Cruz Biotechnology, Santa Cruz, Calif.) and subjected to immunoprecipitation with myc-agarose or V5-agarose (Sigma Chemical Co., Oakville, Ontario). After washing 3 times with ice-cold PBS, bound protein was eluted with SDS and immunoblotted with anti-Myc (9E10, 1:1000; Sigma Chemical Co., Oakville, Ontario) or anti-V5 (1:5000; Invitrogen, Burlington, Ontario). For time course experiments, PC12 cells were transfected for 24 hours using Lipofectamine 2000 (Invitrogen, Burlington, Ontario) and differentiated with 50 ng/ml nerve growth factor (NGF; Upstate Biotechnology, Waltham, Mass.) for 24 hours. Cells were treated with Nogo-P4 peptide for the indicated period of time at 37° C. Cells were then lysed and proteins were immunoprecipitated as described above.

[1] = target: T2, binding between FLAG-RhoA63L and myc-ROCK (Homo sapiens, UniProt P61586, Q63L); test: Co-immunoprecipitation of FLAG-RhoA63L and myc-ROCK in co-transfected HEK293T cells; type: cell-based; conditions: FIG. 7d
T2 construct: expressed in transfected cells; host or cells: HEK293T
T2 sequence (P61586 1-190 Q63L limits assumed): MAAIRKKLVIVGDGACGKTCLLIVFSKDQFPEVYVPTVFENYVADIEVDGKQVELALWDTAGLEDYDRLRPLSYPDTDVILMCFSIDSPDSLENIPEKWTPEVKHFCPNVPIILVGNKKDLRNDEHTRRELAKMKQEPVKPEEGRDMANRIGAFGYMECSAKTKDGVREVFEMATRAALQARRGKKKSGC
Description: as §1

[2] = test system: dissociated E13 chick DRG neurons; test: Neurite outgrowth assay on aggrecan substrate, HSV-infected neurons; type: cell-based; conditions: introduced via recombinant HSV, FIG. 8e
Description: (§2) For neurite outgrowth assays, myelin was dried down on poly-L-lysine-coated substrates. Substrates were washed and coated with 10 μg/ml laminin for 1 hr. For outgrowth on aggrecan, poly-L-lysine-coated substrates were coated with aggrecan and 10 μg/ml laminin for 2 hr at 37° C. Dissociated E13 chick DRG neurons were cultured in DRG media (F-12 medium. 10% FBS, 1% penicillin/streptomycin, 1% L-glutamine, 50 ng/ml NGF) in the presence of virus for 24 hours, fixed with 4% paraformaldehyde/20% sucrose in PBS and double stained with anti-βIII tubulin (Covance, Berkeley, Calif.) and anti-V5 antibody (Sigma Chemical Co. Oakville, Ontario). Neurite outgrowth lengths per cell were assessed using Image J, a public domain JAVA image processing program as previously described (Fournier et al., 2003).

[3] = test system: dissociated E13 chick DRG neurons; test: Neurite outgrowth assay on myelin substrate, HSV-infected neurons; type: cell-based; conditions: introduced via recombinant HSV, compared to GFP- or full length CRMP4b-infected neurons, FIG. 8b, d
Description: as §2

CRMP4a-RhoA binding = target: T3, CRMP4a-RhoA binding (Homo sapiens, UniProt P61586); test: CRMP-RhoA co-immunoprecipitation, CRMP4a binding to RhoA in co-transfected HEK293T cells; type: cell-based, rat; conditions: co-transfection with myc-RhoAWT and CRMP4-V5, myc-immunoprecipitation, FIG. 7c
T3 construct: expressed in transfected cells; host or cells: HEK293T
T3 sequence (P61586 1-190 limits assumed): as the sequence (P61586 1-190 limits assumed) above
Description: as §1

[4] = test system: dissociated E13 chick DRG neurons; test: Neurite outgrowth assay on laminin (control) substrate, HSV-infected neurons; type: cell-based; conditions: introduced via recombinant HSV, normalized to GFP-infected neurons, FIG. 8b, c
Description: as §2

E13 chick DRG neurons = test: Filopodia and neurite branch analysis of HSV-infected DRG growth cones; type: cell-based; conditions: overexpression by HSV infection
Description: E7-13 chick DRG explants were cultured in DRG media on poly-L-lysine- and laminin-coated substrates for 18 hours. For viral infections, recombinant viral preparations were added to the media 1 hour after plating. After 18 hours, cultures were treated with myelin and fixed with 4% paraformaldehyde/20% sucrose/PBS, permeabilized in 0.2% triton X-100 and double stained with polyclonal anti-RhoA antibody (Santa Cruz Biotechnology, Santa Cruz, Calif.) and anti-CRMP4b or V5 antibody. For filopodia and branch analysis, GFP and CRMP4bV5-infected growth cones were double stained with rhodamine-phalloidin (Molecular Probes, Eugene, Oreg.) and anti-V5 antibody. Filopodial length per growth cone was assessed using Image J, by measuring total filopodial length per growth cone averaged by the total number of filopodia per growth cone. Neurite branches were quantified by counting total branch buds per neurite.

| Substance | Sema3A-dependent growth cone collapse (E8 chick DRG neurons) | effect on RhoA binding to full length CRMP4b (CRMP4b-RhoA binding) | effect on binding between FLAG-RhoA63L and myc-ROCK [1] | neurite outgrowth on aggrecan [2] | neurite outgrowth on myelin substrate (myelin-dependent outgrowth inhibition) [3] | effect on RhoA binding to CRMP4a (CRMP4a-RhoA binding) | basal neurite outgrowth on permissive control (laminin) substrate [4] | branches per neurite (E13 chick DRG neurons; average (GFP-infected: 2), FIG. 5g) | filopodia length increase versus GFP-infected growth cones (E13 chick DRG neurons; average, FIG. 5e, f, g) |
| --- | --- | --- | --- | --- | --- | --- | --- | --- | --- |
| C4RIP-V5: CRMP4b-RhoA Inhibitory Peptide: first 126 residues of the unique amino terminal domain of CRMP4b (SEQ ID NO: 2), fused to a V5-epitope tag | no effect on Sema3A-dependent growth cone collapse | significantly diminishes RhoA binding to full length CRMP4b | does not diminish binding between FLAG-RhoA63L and myc-ROCK | promotes neurite outgrowth on aggrecan | significantly attenuates myelin-dependent outgrowth inhibition | without affecting binding to CRMP4a | does not promote basal DRG outgrowth on permissive control substrates |  |  |
| CRMP4b-V5: full length rat CRMP4b (SEQ ID NO: 1) with V5-His tag, overexpressed via HSV or plasmid |  |  | does not affect the binding between FLAG-RhoA63L and myc-ROCK |  |  |  | not sufficient to mimic myelin inhibitory responses | 8 branches per neurite | 70% |
